Laboratory results taken from patent US10981932B2, “Macrocyclic indole derivatives” (Bayer Aktiengesellschaft, priority 2016, dated 2021).
Counter-ions that a name gives are not always drawn. Like-named read-outs stand apart in the source and are kept apart here.

Key:
SUDHL10 [1] = test: Anti-proliferative effect (CellTiter-Glo, 72 h), SUDHL10; format: cell-based; conditions: SUDHL10 cells, antiproliferation, 72 h incubation, median, read-out: Antiproli SUDHL10 [M] (median)
Method in brief: (§1)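 After seeding, one plate is read right away by CellTiter-Glo luminescence to fix time zero. The treated plates stay at 37 °C in humidified air for 72 h and are then measured with the same reagent and 10 min incubation.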

MCL-1 = MCL-1 (Homo sapiens, UniProt Q07820); test: Protein-protein interaction assay MCL-1/Noxa BH3 peptide (MCL-1 assay), TR-FRET; format: binding; conditions: MBP-MCL-1 / Noxa BH3-derived peptide, median
Method in brief: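 Inhibition values were normalized between DMSO controls with all reagents and controls lacking MCL-1. The binding competition used 1 nM MBP-MCL-1 in pH 7 Tris buffer containing 50 mM KF and 100 mM NaCl, with a 10 min compound preincubation at 22 °C.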

MV-4-11 = test: Anti-proliferative effect (CellTiter-Glo, 72 h), MV-4-11; format: cell-based; conditions: MV-4-11 cells, median, read-out: IC50 antiproliferation assay MV-4-11 [M] (median)
Method in brief: as §1

SUDHL10 [2] = test: Induction of cytotoxicity (CellTiter-Glo, 5 h), SUDHL10
SUDHL10 [3] = test: Induction of caspase-3/7 activity (Caspase-Glo 3/7), SUDHL10; format: cell-based; conditions: caspase-3/7 induction, SUDHL10 cells, 3 h treatment, median
Method in brief: (§2)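 Apoptosis induction measured as caspase-3/7 activity (Caspase-Glo 3/7) in DLBCL lines after 3 h treatment at 37 °C; EC50 derived relative to the reference compound's maximal induction, with C0 fixed at 1.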

SUDHL5 [4] = test: Induction of cytotoxicity (CellTiter-Glo, 5 h), SUDHL5
SUDHL5 [5] = test: Induction of caspase-3/7 activity (Caspase-Glo 3/7), SUDHL5; format: cell-based; conditions: caspase-3/7 induction, SUDHL5 cells, 3 h treatment, median
Method in brief: as §2

A2780 = test: Anti-proliferative effect (CellTiter-Glo, 72 h), A2780; format: cell-based; conditions: A2780 cells, median, read-out: IC50 antiproliferation assay A2780 [M] (median)
Method in brief: as §1

SUDHL5 [6] = test: Anti-proliferative effect (CellTiter-Glo, 72 h), SUDHL5; format: cell-based; conditions: SUDHL5 cells, antiproliferation, 72 h incubation, median, read-out: Antiproli SUDHL5 [M] (median)
Method in brief: as §1

OPM2 = test: Anti-proliferative effect (CellTiter-Glo, 72 h), OPM2; format: cell-based; conditions: OPM2 cells, median, read-out: IC50 antiproliferation assay OPM2 [M] (median)
Method in brief: as §1

[7] = read-out: Cytotox SUDHL10 [M] (median), SUDHL10 cells, cytotoxicity induction, CellTiter-Glo, 5 h incubation, median
[8] = read-out: Cytotox SUDHL5 [M] (median), SUDHL5 cells, cytotoxicity induction, CellTiter-Glo, 5 h incubation, median
[9] = Homo sapiens, SU-DHL10, 5 h, read-out: Cytotox SUDHL10 [M] (median), SUDHL10 cells, cytotoxicity induction, CellTiter-Glo, 5 h incubation, median
[10] = Homo sapiens, SU-DHL-5, 5 h, read-out: Cytotox SUDHL5 [M] (median), SUDHL5 cells, cytotoxicity induction, CellTiter-Glo, 5 h incubation, median

MCL-1, sequence (Q07820 whole entry): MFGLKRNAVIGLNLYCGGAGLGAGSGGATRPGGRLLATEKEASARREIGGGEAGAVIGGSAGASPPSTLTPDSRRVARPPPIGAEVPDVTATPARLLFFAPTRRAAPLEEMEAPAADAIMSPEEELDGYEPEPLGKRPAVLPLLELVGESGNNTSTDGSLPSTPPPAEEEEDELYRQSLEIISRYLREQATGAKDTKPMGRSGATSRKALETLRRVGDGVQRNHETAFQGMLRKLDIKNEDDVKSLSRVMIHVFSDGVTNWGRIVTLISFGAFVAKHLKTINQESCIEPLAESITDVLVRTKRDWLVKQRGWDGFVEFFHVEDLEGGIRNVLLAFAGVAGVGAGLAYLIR

IC50 (SUDHL10 [1]) [M] | IC50 (MCL-1) [µM] | IC50 (MV-4-11) [M] | EC50 (SUDHL10 [3]) [µM] | EC50 (SUDHL5 [5]) [µM] | IC50 (A2780) [M] | IC50 (SUDHL5 [6]) [M] | IC50 (SUDHL10 [1]; Homo sapiens, SU-DHL10, 72 h) [M] | IC50 (MV-4-11; Homo sapiens, MV4-11, 72 h) [M] | IC50 (A2780; Homo sapiens, A2780, 72 h) [M] | IC50 (SUDHL5 [6]; Homo sapiens, SU-DHL-5, 72 h) [M] | EC50 (SUDHL10 [3]; Homo sapiens, SU-DHL10, 3 h) [µM] | EC50 (SUDHL5 [5]; Homo sapiens, SU-DHL-5, 3 h) [µM] | SMILES | IC50 (SUDHL10 [2]; [7]) [M] | IC50 (SUDHL5 [4]; [8]) [M] | IC50 (OPM2) [M] | IC50 (SUDHL10 [2]; [9]) [M] | IC50 (OPM2; Homo sapiens, OPM-2, 72 h) [M] | IC50 (SUDHL5 [4]; [10]) [M]
9.59e-06 | 0.0167 | 1.05e-05 | 6.71 | 6.14 | 1.83e-05 | 5.52e-06 |  |  |  |  |  |  | CN1CCCn2c(C(=O)O)c(CCCOc3cccc4ccccc34)c3cccc(c32)-c2c(COc3ccc(S(C)(=O)=O)cc3)nn(C)c2C1 (single isomer, unassigned) [Example 1-50] | 1.26e-05 | 5.74e-06 | 1.21e-05 |  |  | 
 | 0.0203 |  | 13.5 | 9 |  |  | 4.63e-06 | 7.19e-06 | 1.12e-05 | 8.76e-06 |  |  | Cc1nn(C)c2c1-c1cccc3c(CCCOc4cccc5ccccc45)c(C(=O)O)n(c13)CCCN(c1ccc(N3CCOCC3)cc1)C2 (single isomer, unassigned; enantiomer 1) [Example 1-99, 9,11-Dimethyl-7-[4-(morpholin-4-yl)phenyl]-1-[3-(1-naphthyloxy)propyl]-4,5,6,7,8,9-hexahydropyrazolo[3′,4′:7,8][1,5]diazecino[9,10,1-hi]indole-2-carboxylic Acid (Enantiomer 1)] |  | 1.3e-05 |  | 1.93e-05 | 1.98e-05 | 
 | 0.0102 |  |  |  |  |  | 4.3e-06 | 2.62e-06 | 7.55e-06 | 2.48e-06 | 7.32 | 6.34 | COc1ccccc1-c1ncc(OCc2nn(C)c3c2-c2cccc4c(CCCOc5cccc6ccccc56)c(C(=O)O)n(c24)CCCN(C)C3)cn1 (single isomer, unassigned) [Example 1-91, 11-({[2-(2-methoxyphenyl)pyrimidin-5-yl]oxy}methyl)-7,9-dimethyl-1-[3-(naphthalen-1-yloxy)propyl]-4,5,6,7,8,9-hexahydropyrazolo[3′,4′:7,8][1,5]diazecino[9,10,1-hi]indole-2-carboxylic acid-N-ethylethanamine Salt] |  | 5.99e-06 |  | 9.23e-06 | 8.37e-06 | 
4.47e-06 | 0.00185 |  | 3.43 | 1.74 | 2.71e-05 | 1.32e-06 |  | 1.85e-06 |  |  |  |  | COCc1c2c(nn1C)COCCCCn1c(C(=O)O)c(CCCOc3cccc4ccccc34)c3cccc-2c31 (single isomer, unassigned; enantiomer 2) [Example 101, 3-(methoxymethyl)-2-methyl-7-[3-(naphthalen-1-yloxy)propyl]-2,10,11,12,13,15-hexahydropyrazolo[4′,3′:9,10][1,6]oxazacycloundecino[8,7,6-hi]indole-8-carboxylic acid-N-ethylethanamine Salt (Enantiomer 2)] | 4e-06 | 2.03e-06 |  |  | 4.37e-06 | 
 | 0.00377 |  |  |  |  |  | 3.93e-06 | 1.37e-05 | 2.44e-05 | 3.06e-06 | 7.48 | 2.26 | CCc1c2c(nn1C)COCCCCn1c(C(=O)O)c(CCCOc3cccc4ccccc34)c3cccc-2c31 (racemic) [Example 147, (rac)-3-Ethyl-2-methyl-7-[3-(1-naphthyloxy)propyl]-2,10,11,12,13,15-hexahydropyrazolo[4′,3′:9,10][1,6]oxazacycloundecino[8,7,6-hi]indole-8-carboxylic Acid] |  |  |  | 9.53e-06 | 1.05e-05 | 2.8e-06
 | 0.00175 |  |  |  |  |  | 9.28e-07 | 2.44e-06 | 4.31e-06 | 7.61e-07 | 0.652 | 0.405 | Cn1nc(COc2ccc(N3CCN(S(=O)(=O)C4CC4)CC3)cc2)c2c1COCCCCn1c(C(=O)O)c(CCCOc3cccc4ccccc34)c3cccc-2c31 (racemic) [Example 1-11, (rac)-3-({4-[4-(cyclopropylsulfonyl)piperazin-1-yl]phenoxy}methyl)-1-methyl-7-[3-(naphthalen-1-yloxy)propyl]-110,11,12,13,15-hexahydropyrazolo[4′,3′:9,10][1,6]oxazacycloundecino[8,7,6-hi]indole-8-carboxylic Acid] |  |  |  | 1.03e-06 | 1.51e-06 | 8.89e-07
 | 0.00303 |  |  | 8.86 |  |  | 5.31e-06 | 4.54e-06 | 7.06e-06 | 3.28e-06 | 17.7 |  | CC(C)c1c2c(nn1C)CN(C)CCCn1c(C(=O)O)c(CCCOc3cccc4ccccc34)c3cccc-2c31 (single isomer, unassigned; enantiomer 1) [Example 114, 7,10-dimethyl-1-[3-(naphthalen-1-yloxy)propyl]-11-(propan-2-yl)-4,5,6,7,8,10-hexahydropyrazolo[3′,4′:7,8][1,5]diazecino[9,10,1-hi]indole-2-carboxylic acid (enantiomer 1)] |  |  |  | 8.59e-06 | 1.1e-05 | 6.61e-06
1.17e-05 | 0.0242 | 8.59e-06 | 14.7 | 12.5 | > 3.3e-05 | 3.37e-06 |  |  |  |  |  |  | Cn1nc(COc2ccc(N3CCN(S(C)(=O)=O)CC3)cc2)c2c1COCCCCn1c(C(=O)O)c(CCCOc3cccc4ccccc34)c3cccc-2c31 (single isomer, unassigned; enantiomer 1) [Example 1-9, 1-methyl-3-({4-[4-(methylsulfonyl)piperazin-1-yl]phenoxy}methyl)-7-[3-(naphthalen-1-yloxy)propyl]-1,10,11,12,13,15-hexahydropyrazolo[4′,3′:9,10][1,6]oxazacycloundecino[8,7,6-hi]indole-8-carboxylic Acid (Enantiomer 1)] | 9.08e-06 | 9.46e-06 | > 3.3e-05 |  |  | 
 | 0.00527 |  |  |  |  |  | 7.34e-06 | 2.98e-05 | 2.54e-05 | 9.27e-06 | 20.4 | 6.7 | Cc1ccc2c(CCCOc3cccc4ccccc34)c(C(=O)O)n3c2c1-c1c(C)nn(C)c1COCCCC3 (racemic) [Example 027, (rac)-1,3,4-trimethyl-7-[3-(naphthalen-1-yloxy)propyl]-1,10,11,12,13,15-hexahydropyrazolo[4′,3′:9,10][1,6]oxazacycloundecino[8,7,6-hi]indole-8-carboxylic Acid] |  |  |  | 2.59e-05 | > 3.3e-05 | 8.54e-06
1.87e-06 | 0.00442 |  | 11.9 | 1.63 | > 3.3e-05 | 2.53e-06 |  | 1.69e-05 | 1.85e-05 |  |  |  | Cc1c2c(nn1C)CN(C)CCCCn1c(C(=O)O)c(CCCOc3cccc4ccccc34)c3cccc-2c31 (single isomer, unassigned; enantiomer 1) [Example 068, 2,3,14-trimethyl-7-[3-(naphthalen-1-yloxy)propyl]-10,11,12,13,14,15-hexahydro-2H-pyrazolo[3′,4′:8,9][1,6]diazacycloundecino[10,11,1-hi]indole-8-carboxylic Acid (Enantiomer 1)] | 5.02e-06 | 2.25e-06 |  |  | 9.82e-06 | 
